Data reported in patent US20230159556A1, “NOVEL PROTEIN KINASE INHIBITORS” (TENOVA PHARMACEUTICALS INC., priority 2020, published 2023).
Like-named read-outs stand apart in the source and are kept apart here.

Experiments:
[1] = system: Ba/F3_WT cell; experiment: BaF3 cell proliferation assay (CelltiterGlo, 72 hr); assay type: cell-based; conditions: Mus musculus, 72 hr incubation
Method: (§1) The BaF3 cell proliferation assay was performed at Pharmaron (www.pharmaron.com, Beijing, China). The Ba/F3_WT and Ba/F3_Del19/T790M/C797S cell lines were maintained in 1640 medium containing 10% FBS, 1*PS and 1*Glutamax. Only cells with viability greater than 90% are used for assays. Dispense 30 μl of cell suspension at 700/well into 384 well microplate, add 30 nl compound solution into 384 cell plate by Echo, cells were incubated for 72 hr in 37° C./5% CO2 incubator, add 30 μl reagent CelltiterGlo assay kit (CTG, Promega) per well and shake plates, incubate the plate (avoiding light) at 37° C./5% CO2 for 30 min. and read the luminescence by Envision. The luminescence values were converted to % Inhibition. Calculate IC50 by fitting % inhibition values and log of compound concentrations to nonlinear regression (dose response−variable slope) with Graphpad 5.0.
(§2) Y=Bottom+(Top−Bottom)/(1+10^((Log IC50−X)*HillSlope))
(§3) X: log of inhibitor concentration; Y: % Inhibition.

[2] = molecular target: Ba/F3_EGFR_del19/T790M/C797S cell (Homo sapiens, UniProt P00533, T790M/C797S, cells depend on it, form not given); experiment: as above; assay type: cell-based; conditions: 72 hr incubation; read-out: IC50 (nM, Ba/F3_EGFR_del19/T790M/C797S cell proliferation)
Method: as §1, §2, §3

[3] = molecular target: T1, EGFR_WT (Homo sapiens, UniProt P00533); experiment: In vitro biochemical kinase assay (33P-ATP filter-binding, Reaction Biology)
T1 construct: Reaction Biology Corporation (contract assay provider)
Method: (§4) The biochemical kinase assay was performed at Reaction Biology Corporation (www.reactionbiology.com, Malvern, Pa.) following procedures described in the reference (Anastassiadis, T, et al, Nature Biotechnology, 2011, 29, 1039). Base Reaction buffer includes 20 mM Hepes (pH 7.5), 10 mM MgCl2, 1 mM EGTA, 0.02% Brij35, 0.02 mg/ml BSA, 0.1 mM Na3VO4, 2 mM DTT and 1% DMSO. Required cofactors are added individually to each kinase reaction. Testing compounds were dissolved in 100% DMSO to specific concentration. The serial dilution was conducted by Integra Viaflo Assist in DMSO. Compounds in 100% DMSO are into the kinase reaction mixture by Acoustic technology (Echo550; nanoliter range), incubate for 20 min at room temperature, followed by ^33P-ATP and incubation for 2 hours at room temperature. Radioactivity was then detected by filter-binding method. Kinase activity data were expressed as the percent remaining kinase activity in test samples compared to vehicle (dimethyl sulfoxide) reactions. IC50 values and curve fits were obtained using Prism (GraphPad Software).

[4] = molecular target: T2, EGFR_L858R/T790M/C797S (Homo sapiens, UniProt P00533, C797S/L858R/T790M); experiment: as above
T2 construct: Reaction Biology Corporation (contract assay provider)
Method: as §4

[5] = from COc1cc(N2CCN(C)CC2)c(CCCO)cc1Nc1ncc(Cl)c(Nc2ccc(O)cc2S(C)(=O)=O)n1; ether bond; 16-membered ring; PPh3/DIAD; THF; 18.8 mM
[6] = ether bond, 25.0 °C, 16.0 h

Chain of Ba/F3_EGFR_del19/T790M/C797S cell (P00533 with tags, fused parts or gaps DEL746-750/T790M/C797S, form open): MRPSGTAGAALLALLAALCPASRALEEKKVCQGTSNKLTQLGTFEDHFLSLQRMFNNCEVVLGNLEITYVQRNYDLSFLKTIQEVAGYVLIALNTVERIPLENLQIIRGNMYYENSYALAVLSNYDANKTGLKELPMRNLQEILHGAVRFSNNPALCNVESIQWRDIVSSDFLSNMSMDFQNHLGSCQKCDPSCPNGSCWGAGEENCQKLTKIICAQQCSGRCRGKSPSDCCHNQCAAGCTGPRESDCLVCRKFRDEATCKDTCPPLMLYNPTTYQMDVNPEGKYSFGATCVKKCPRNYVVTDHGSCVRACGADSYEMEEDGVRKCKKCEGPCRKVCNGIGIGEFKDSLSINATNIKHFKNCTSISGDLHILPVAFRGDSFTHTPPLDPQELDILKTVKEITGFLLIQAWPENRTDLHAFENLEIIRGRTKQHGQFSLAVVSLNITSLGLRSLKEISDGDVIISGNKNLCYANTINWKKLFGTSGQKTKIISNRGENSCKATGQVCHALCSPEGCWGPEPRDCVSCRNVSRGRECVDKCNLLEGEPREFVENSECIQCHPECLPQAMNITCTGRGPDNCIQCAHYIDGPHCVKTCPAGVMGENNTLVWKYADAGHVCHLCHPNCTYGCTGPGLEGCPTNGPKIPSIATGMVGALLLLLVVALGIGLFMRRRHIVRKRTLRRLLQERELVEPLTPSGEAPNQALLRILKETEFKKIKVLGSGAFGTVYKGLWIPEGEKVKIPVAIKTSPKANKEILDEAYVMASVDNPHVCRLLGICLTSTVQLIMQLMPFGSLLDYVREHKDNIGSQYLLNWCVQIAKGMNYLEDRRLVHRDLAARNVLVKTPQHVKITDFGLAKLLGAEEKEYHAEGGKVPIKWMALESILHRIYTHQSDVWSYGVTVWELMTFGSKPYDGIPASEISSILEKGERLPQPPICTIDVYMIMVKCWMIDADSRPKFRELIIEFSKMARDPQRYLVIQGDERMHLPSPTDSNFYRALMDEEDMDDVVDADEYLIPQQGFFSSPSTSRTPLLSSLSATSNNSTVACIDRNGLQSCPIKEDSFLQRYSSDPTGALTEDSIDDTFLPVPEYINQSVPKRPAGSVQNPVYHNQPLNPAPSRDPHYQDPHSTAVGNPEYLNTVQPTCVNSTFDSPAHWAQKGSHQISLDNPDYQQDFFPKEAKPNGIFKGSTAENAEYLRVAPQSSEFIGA
T1 sequence (P00533 25-1210): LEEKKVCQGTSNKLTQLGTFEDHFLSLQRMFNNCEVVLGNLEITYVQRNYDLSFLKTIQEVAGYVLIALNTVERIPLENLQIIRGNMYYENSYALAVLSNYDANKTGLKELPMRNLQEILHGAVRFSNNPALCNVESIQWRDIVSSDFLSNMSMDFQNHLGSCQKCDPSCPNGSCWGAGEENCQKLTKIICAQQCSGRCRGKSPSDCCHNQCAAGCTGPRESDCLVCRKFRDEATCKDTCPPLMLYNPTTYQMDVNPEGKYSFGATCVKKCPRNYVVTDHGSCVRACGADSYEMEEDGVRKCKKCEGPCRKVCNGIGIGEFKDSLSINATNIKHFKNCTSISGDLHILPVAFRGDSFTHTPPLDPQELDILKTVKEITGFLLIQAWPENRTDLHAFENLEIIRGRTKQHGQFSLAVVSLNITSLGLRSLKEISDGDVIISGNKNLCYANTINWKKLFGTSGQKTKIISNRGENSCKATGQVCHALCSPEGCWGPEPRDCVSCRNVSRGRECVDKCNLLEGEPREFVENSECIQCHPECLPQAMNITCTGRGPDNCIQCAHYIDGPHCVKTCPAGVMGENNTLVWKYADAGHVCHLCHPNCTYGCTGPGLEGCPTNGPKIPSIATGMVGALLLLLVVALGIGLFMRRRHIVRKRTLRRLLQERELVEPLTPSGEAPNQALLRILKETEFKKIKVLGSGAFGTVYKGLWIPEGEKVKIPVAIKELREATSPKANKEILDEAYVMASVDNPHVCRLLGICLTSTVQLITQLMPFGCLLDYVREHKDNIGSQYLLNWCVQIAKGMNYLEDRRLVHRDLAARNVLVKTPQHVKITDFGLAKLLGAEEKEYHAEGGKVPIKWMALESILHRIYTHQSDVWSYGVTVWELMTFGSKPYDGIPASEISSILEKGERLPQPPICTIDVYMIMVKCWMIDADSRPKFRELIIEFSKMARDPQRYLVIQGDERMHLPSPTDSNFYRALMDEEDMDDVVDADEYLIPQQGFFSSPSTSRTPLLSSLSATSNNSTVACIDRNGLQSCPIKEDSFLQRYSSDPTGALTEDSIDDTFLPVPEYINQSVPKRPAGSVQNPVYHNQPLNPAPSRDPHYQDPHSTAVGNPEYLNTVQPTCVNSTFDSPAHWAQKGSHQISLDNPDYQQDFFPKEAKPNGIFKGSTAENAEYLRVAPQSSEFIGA
T2 sequence (P00533 25-1210 T790M/C797S/L858R): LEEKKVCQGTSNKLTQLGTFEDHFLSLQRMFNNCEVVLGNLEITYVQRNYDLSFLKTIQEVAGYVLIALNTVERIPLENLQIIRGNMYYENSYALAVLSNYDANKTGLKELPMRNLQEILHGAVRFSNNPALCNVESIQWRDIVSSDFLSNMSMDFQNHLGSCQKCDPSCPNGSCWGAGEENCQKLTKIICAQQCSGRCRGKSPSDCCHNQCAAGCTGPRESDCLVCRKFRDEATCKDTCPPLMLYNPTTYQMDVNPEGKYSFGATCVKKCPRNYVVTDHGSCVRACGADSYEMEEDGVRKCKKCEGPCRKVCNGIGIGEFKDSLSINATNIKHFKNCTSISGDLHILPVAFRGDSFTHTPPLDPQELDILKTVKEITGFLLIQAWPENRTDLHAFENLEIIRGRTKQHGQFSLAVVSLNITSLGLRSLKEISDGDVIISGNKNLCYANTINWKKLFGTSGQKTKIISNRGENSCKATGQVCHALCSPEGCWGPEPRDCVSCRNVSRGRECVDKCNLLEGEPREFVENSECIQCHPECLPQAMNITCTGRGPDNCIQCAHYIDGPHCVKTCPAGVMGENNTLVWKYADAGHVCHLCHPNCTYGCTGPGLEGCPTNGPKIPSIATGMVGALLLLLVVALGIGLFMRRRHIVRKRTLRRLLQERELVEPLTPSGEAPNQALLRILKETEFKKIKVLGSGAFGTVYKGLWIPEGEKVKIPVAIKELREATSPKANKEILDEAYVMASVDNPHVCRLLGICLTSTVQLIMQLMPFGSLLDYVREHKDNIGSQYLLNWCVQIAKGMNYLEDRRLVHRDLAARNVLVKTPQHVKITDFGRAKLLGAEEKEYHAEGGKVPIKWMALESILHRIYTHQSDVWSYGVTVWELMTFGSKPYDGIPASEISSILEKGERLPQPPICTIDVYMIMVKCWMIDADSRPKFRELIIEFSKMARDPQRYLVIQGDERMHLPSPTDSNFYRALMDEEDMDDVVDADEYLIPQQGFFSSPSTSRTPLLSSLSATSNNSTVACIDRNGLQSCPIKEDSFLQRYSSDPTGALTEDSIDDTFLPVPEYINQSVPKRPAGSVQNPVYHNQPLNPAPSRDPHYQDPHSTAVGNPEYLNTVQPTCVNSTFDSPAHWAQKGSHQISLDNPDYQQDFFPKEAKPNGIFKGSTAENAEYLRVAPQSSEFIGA

Row | SMILES | IC50 [1] [nM] | GI50 [2] [nM] | IC50 [3] [nM] | IC50 [4] [nM] | ring closure, isolated yield [5] [%] | ring closure, yield of all isomers ([6]; from COc1cc(N2CCN(C)CC2)c(CCCO)cc1Nc1ncc(Cl)c(Nc2ccc(O)cc2S(C)(=O)=O)n1, DIAD/PPh3, THF, 18.8 mM) [%] | ring closure, yield of all isomers ([6]; from COc1cc(N2CCC(N3CCN(C)CC3)CC2)c(NC(=O)CCCBr)cc1Nc1ncc(Cl)c(Nc2ccc(O)cc2N(C)S(C)(=O)=O)n1, K2CO3/KI, DMF, 20.0 mM) [%]
1 | CCN(c1cc2ccc1Nc1nc(ncc1Br)Nc1cc(c(N3CCC(N4CCN(C)CC4)CC3)cc1OC)CCCCCO2)S(C)(=O)=O [Compound A30, N-(3^5-bromo-1^6-methoxy-1^4-(4-(4-methylpiperazin-1-yl)piperidin-1-yl)-6-oxa-2,4-diaza-3(2,4)-pyrimidina-1(1,3),5(1,4)-dibenzenacycloundecaphane-5^2-yl)-N-ethylmethanesulfonamide] | 1690 | 22.4 | 14.9 | 0.6 |  |  | 
2 | COc1cc(N2CCC(N3CCN(C)CC3)CC2)c2cc1Nc1ncc(Cl)c(n1)Nc1ccc(cc1N(C)S(C)(=O)=O)OCCCCC2 [Compound A9, N-(3^5-chloro-1^6-methoxy-1^4-(4-(4-methylpiperazin-1-yl)piperidin-1-yl)-6-oxa-2,4-diaza-3(2,4)-pyrimidina-1(1,3),5(1,4)-dibenzenacycloundecaphane-5^2-yl)-N-methylmethanesulfonamide] | 1390 | 34 | 5.9 | 0.5 |  |  | 
3 | COc1cc(N2CCN(C)CC2)c2cc1Nc1ncc(Cl)c(n1)Nc1ccc(cc1S(C)(=O)=O)OCCC2 [Compound A1, 3^5-chloro-1^6-methoxy-1^4-(4-methylpiperazin-1-yl)-5^2-(methylsulfonyl)-6-oxa-2,4-diaza-3(2,4)-pyrimidina-1(1,3),5(1,4)-dibenzenacyclononaphane] |  |  |  | 5580 | 6 | 6 | 
4 | COc1cc(N2CCN(C)CC2)c2cc1Nc1ncc(Cl)c(n1)Nc1ccc(cc1N(C)S(C)(=O)=O)OCCCCC2 [Compound A3, N-(3^5-chloro-1^6-methoxy-1^4-(4-methylpiperazin-1-yl)-6-oxa-2,4-diaza-3(2,4)-pyrimidina-1(1,3),5(1,4)-dibenzenacycloundecaphane-5^2-yl)-N-methylmethanesulfonamide] | 1180 | 135 |  | 9.86 |  |  | 
5 | COc1cc(N2CCC(N3CCN(C)CC3)CC2)c2cc1Nc1ncc(Br)c(n1)Nc1ccc(cc1P(C)(C)=O)OCCCCC2 [Compound A33, (3^5-bromo-1^6-methoxy-1^4-(4-(4-methylpiperazin-1-yl)piperidin-1-yl)-6-oxa-2,4-diaza-3(2,4)-pyrimidina-1(1,3),5(1,4)-dibenzenacycloundecaphane-5^2-yl)dimethylphosphine oxide] | 6490 | 75 | 413 | 1.8 |  |  | 
6 | COc1cc(N2CCC(N3CCN(C)CC3)CC2)c2cc1Nc1ncc(Cl)c(n1)Nc1ccc(cc1N(C)S(C)(=O)=O)OCCCCCC2 [Compound A15, N-(3^5-chloro-1^6-methoxy-1^4-(4-(4-methylpiperazin-1-yl)piperidin-1-yl)-6-oxa-2,4-diaza-3(2,4)-pyrimidina-1(1,3),5(1,4)-dibenzenacyclododecaphane-5^2-yl)-N-methylmethanesulfonamide] | 2660 | 195 |  | 0.5 |  |  | 
7 | COc1cc(N2CCC(N3CCN(C)CC3)CC2)c2cc1Nc1ncc(Br)c(n1)Nc1ccc(cc1P(C)(C)=O)OCCCCCC2 [Compound A34, (3^5-bromo-1^6-methoxy-1^4-(4-(4-methylpiperazin-1-yl)piperidin-1-yl)-6-oxa-2,4-diaza-3(2,4)-pyrimidina-1(1,3),5(1,4)-dibenzenacyclododecaphane-5^2-yl)dimethylphosphine oxide] | 3820 | 142 |  | 2 |  |  | 
8 | COc1cc(N2CCN(C3CCN(C)CC3)CC2)c2cc1Nc1ncc(Cl)c(n1)Nc1ccc(cc1N(C)S(C)(=O)=O)OCCCCC2 [Compound A20, N-(3^5-chloro-1^6-methoxy-1^4-(4-(1-methylpiperidin-4-yl)piperazin-1-yl)-6-oxa-2,4-diaza-3(2,4)-pyrimidina-1(1,3),5(1,4)-dibenzenacycloundecaphane-5^2-yl)-N-methylmethanesulfonamide] | 1450 | 89 |  | 2.6 |  |  | 
9 | COc1cc(N2CCN(C)CC2)c2cc1Nc1ncc(Cl)c(n1)Nc1ccc(cc1P(C)(C)=O)OCCCCC2 [Compound A18, (3^5-chloro-1^6-methoxy-1^4-(4-methylpiperazin-1-yl)-6-oxa-2,4-diaza-3(2,4)-pyrimidina-1(1,3),5(1,4)-dibenzenacycloundecaphane-5^2-yl)dimethylphosphine oxide] | > 10000 | 520 |  | 145 |  |  | 
10 | CCN(c1cc2ccc1Nc1nc(ncc1Cl)Nc1cc(c(N3CCN(C)CC3)cc1OC)CCCCCCO2)S(C)(=O)=O [Compound A23, N-(3^5-chloro-1^6-methoxy-1^4-(4-methylpiperazin-1-yl)-6-oxa-2,4-diaza-3(2,4)-pyrimidina-1(1,3),5(1,4)-dibenzenacyclododecaphane-5^2-yl)-N-ethylmethanesulfonamide] | 2660 | 157 |  | 2.6 |  |  | 
11 | COc1cc(N2CCC(N(C)C)CC2)c2cc1Nc1ncc(Cl)c(n1)Nc1ccc(cc1N(C)S(C)(=O)=O)OCCCCC2 [Compound A24, N-(3^5-chloro-1^4-(4-(dimethylamino)piperidin-1-yl)-1^6-methoxy-6-oxa-2,4-diaza-3(2,4)-pyrimidina-1(1,3),5(1,4)-dibenzenacycloundecaphane-5^2-yl)-N-methylmethanesulfonamide] | 3330 | 63 | 10.8 | 2.7 |  |  | 
12 | COc1cc(N2CCC(N3CCN(C)CC3)CC2)c2cc1Nc1ncc(Cl)c(n1)Nc1ccc(cc1N(C)S(C)(=O)=O)OCCCC(=O)N2 [Compound A39, N-(3^5-chloro-1^6-methoxy-1^4-(4-(4-methylpiperazin-1-yl)piperidin-1-yl)-10-oxo-6-oxa-2,4,11-triaza-3(2,4)-pyrimidina-1(1,3),5(1,4)-dibenzenacycloundecaphane-5^2-yl)-N-methylmethanesulfonamide] |  |  |  | 7.1 |  |  | 4.2
